Measurements: ChEMBL document CHEMBL1201862, “PubChem BioAssay data set” (2004)
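A five-concentration, 48-hour dose response in 96-well plates underlies each endpoint, interpolated linearly between surrounding concentrations. Here, GI50 denotes the concentration required for 50% inhibition of growth.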 Active and inactive are the calls of the source. No stated cut-off is given here; in the data, active = GI50 up to about 1.1 µM and inactive = higher.

Key:
Experiment in all cases: inhibition of tumour cell growth, NCI panel, 48 h
M19-MEL = system: M19-MEL
A549 = system: A549
SK-MEL-28 = system: SK-MEL-28
SK-MEL-2 = system: SK-MEL-2
HT-29 = system: HT-29
MOLT-4 = system: MOLT-4
786-0 = system: 786-0
UO-31 = system: UO-31
RPMI-8226 = system: RPMI-8226
OVCAR-4 = system: OVCAR-4
EKVX = system: EKVX
NCI-H23 = system: NCI-H23
HCT-15 = system: HCT-15
HOP-62 = system: HOP-62
SNB-19 = system: SNB-19
HCT-116 = system: HCT-116
SF-539 = system: SF-539
PC-3 = system: PC-3
OVCAR-3 = system: OVCAR-3
A498 = system: A498

SMILES | GI50 (M19-MEL) | GI50 (A549) | GI50 (SK-MEL-28) | GI50 (SK-MEL-2) | GI50 (HT-29) | GI50 (MOLT-4) | GI50 (786-0) | GI50 (UO-31) | GI50 (RPMI-8226) | GI50 (OVCAR-4) | GI50 (EKVX) | GI50 (NCI-H23) | GI50 (HCT-15) | GI50 (HOP-62) | GI50 (SNB-19) | GI50 (HCT-116) | GI50 (SF-539) | GI50 (PC-3) | GI50 (OVCAR-3) | GI50 (A498)
CC(C)NC1CCCCC2c3ccccc3C12O (configuration not stated) | > 100 µM (inactive) | > 100 µM (inactive) | > 100 µM (inactive) | > 100 µM (inactive) | > 100 µM (inactive) | > 100 µM (inactive) | > 100 µM (inactive) | > 100 µM (inactive) | > 100 µM (inactive) | > 100 µM (inactive) | > 100 µM (inactive) | > 100 µM (inactive) | > 100 µM | > 100 µM (inactive) | > 100 µM (inactive) | > 100 µM (inactive) | – | – | – | –
Cc1nc(-c2ccccc2)cn2c1nc1ccccc12 | – | 19.4 µM (inactive) | 30.5 µM (inactive) | 20.2 µM (inactive) | 24.3 µM (inactive) | 44 µM (inactive) | 21 µM (inactive) | 13.6 µM (inactive) | 41.1 µM (inactive) | 20.9 µM (inactive) | 25.2 µM (inactive) | 25.9 µM (inactive) | 16.4 µM | 20.9 µM (inactive) | 29.5 µM (inactive) | 25.9 µM (inactive) | 23.1 µM (inactive) | 24.7 µM (inactive) | 26.7 µM (inactive) | 15.3 µM (inactive)
O=C(NCCCCCCCCNC(=O)Nc1cccc2ccccc12)Nc1cccc2ccccc12 | – | 35.1 µM (inactive) | 57.7 µM (inactive) | 83.9 µM (inactive) | > 100 µM (inactive) | 41.6 µM (inactive) | 10.1 µM (inactive) | 21.4 µM (inactive) | > 100 µM (inactive) | 1.45 µM (inactive) | 62.1 µM (inactive) | 30.4 µM (inactive) | > 100 µM | 12.8 µM (inactive) | 32.2 µM (inactive) | 9.55 µM (inactive) | 10.8 µM (inactive) | 72.1 µM (inactive) | 36.5 µM (inactive) | 11 µM (inactive)
O=C(O)CCSC(CC1(c2ccc(Cl)cc2)NC(=O)CCS1)c1ccccc1 (configuration not stated) | – | 24.2 µM (inactive) | 17.9 µM (inactive) | 18.7 µM (inactive) | 17.3 µM (inactive) | 12.5 µM (inactive) | 6.7 µM (inactive) | 20.7 µM (inactive) | 3.56 µM (inactive) | 15 µM (inactive) | 21.5 µM (inactive) | 20.9 µM (inactive) | 8.09 µM | 21.2 µM (inactive) | 23.8 µM (inactive) | 4.71 µM (inactive) | 7.98 µM (inactive) | 18.7 µM (inactive) | 20.2 µM (inactive) | 21.5 µM (inactive)
N#Cc1nc(/C=C/c2cccnc2)oc1N | – | 28.4 µM (inactive) | > 100 µM (inactive) | > 100 µM (inactive) | > 100 µM (inactive) | > 100 µM (inactive) | > 100 µM (inactive) | > 100 µM (inactive) | > 100 µM (inactive) | > 100 µM (inactive) | > 100 µM (inactive) | > 100 µM (inactive) | > 100 µM | > 100 µM (inactive) | > 100 µM (inactive) | > 100 µM (inactive) | > 100 µM (inactive) | > 100 µM (inactive) | > 100 µM (inactive) | > 100 µM (inactive)
CNc1ccc(C)cc1S(=O)(=O)c1ccccc1[N+](=O)[O-] | – | 41.3 µM (inactive) | 38.8 µM (inactive) | 62.4 µM (inactive) | 48.1 µM (inactive) | 18.4 µM (inactive) | 64.6 µM (inactive) | 52.5 µM (inactive) | 49.4 µM (inactive) | 25.2 µM (inactive) | 51.8 µM (inactive) | 63 µM (inactive) | 41.3 µM | 58.9 µM (inactive) | 78 µM (inactive) | 48.4 µM (inactive) | > 100 µM (inactive) | 28.1 µM (inactive) | 43.2 µM (inactive) | 62.5 µM (inactive)
CC(C)NC(=O)OCc1c(COC(=O)NC(C)C)c(-c2cc[n+](COC(=O)C(C)(C)C)cc2)n2c1CCC2 | – | > 100 µM (inactive) | > 100 µM (inactive) | > 100 µM (inactive) | > 100 µM (inactive) | > 100 µM (inactive) | > 100 µM (inactive) | > 100 µM (inactive) | > 100 µM (inactive) | > 100 µM (inactive) | > 100 µM (inactive) | > 100 µM (inactive) | > 100 µM | > 100 µM (inactive) | > 100 µM (inactive) | > 100 µM (inactive) | > 100 µM (inactive) | > 100 µM (inactive) | > 100 µM (inactive) | > 100 µM (inactive)
CN1CCN(C2=C(Cl)C(=O)c3c(O)ccc(O)c3C2=O)CC1 | – | 2.16 µM (inactive) | 0.995 µM (active) | 1.21 µM (inactive) | 0.359 µM (active) | 0.13 µM (active) | 0.244 µM (active) | 0.646 µM (active) | 1.44 µM (inactive) | 0.377 µM (active) | 1.66 µM (inactive) | 0.61 µM (active) | 0.176 µM | 1.92 µM (inactive) | 4.99 µM (inactive) | 0.234 µM (active) | 0.959 µM (active) | 1.73 µM (inactive) | 0.542 µM (active) | 2.52 µM (inactive)
O=C(Nc1ccccc1)O/N=C(/CBr)c1ccccc1 | – | 34 µM (inactive) | 19.5 µM (inactive) | 13.9 µM (inactive) | 6.87 µM (inactive) | 3.18 µM (inactive) | 7.71 µM (inactive) | 16.1 µM (inactive) | 16.3 µM (inactive) | 15.1 µM (inactive) | 17.1 µM (inactive) | 7.35 µM (inactive) | 4.04 µM | 24.3 µM (inactive) | 20.6 µM (inactive) | 4.3 µM (inactive) | 7.11 µM (inactive) | 12.6 µM (inactive) | 17.7 µM (inactive) | 24 µM (inactive)
CN(C)CCCn1c(Cc2ccc(Cl)cc2)nc2cc(C(F)(F)F)ccc21 | – | 18.2 µM (inactive) | 17.9 µM (inactive) | 16.9 µM (inactive) | 14.6 µM (inactive) | 11.2 µM (inactive) | 13.9 µM (inactive) | 0.301 µM (active) | 40.8 µM (inactive) | 13.6 µM (inactive) | 17.4 µM (inactive) | 15.8 µM (inactive) | 17.1 µM | 15.2 µM (inactive) | 16.5 µM (inactive) | 12.5 µM (inactive) | 16.3 µM (inactive) | 15.4 µM (inactive) | 14.5 µM (inactive) | 12.7 µM (inactive)
C/C(=N\O)c1cccc[n+]1Cc1ccccc1 | – | > 100 µM (inactive) | > 100 µM (inactive) | > 100 µM (inactive) | > 100 µM (inactive) | > 100 µM (inactive) | > 100 µM (inactive) | > 100 µM (inactive) | > 100 µM (inactive) | > 100 µM (inactive) | > 100 µM (inactive) | > 100 µM (inactive) | > 100 µM | > 100 µM (inactive) | > 100 µM (inactive) | > 100 µM (inactive) | > 100 µM (inactive) | > 100 µM (inactive) | > 100 µM (inactive) | > 100 µM (inactive)
Oc1ccccc1CNCc1ccccc1O | – | > 100 µM (inactive) | > 100 µM (inactive) | > 100 µM (inactive) | > 100 µM (inactive) | 88.5 µM (inactive) | > 100 µM (inactive) | 90.2 µM (inactive) | 32.7 µM (inactive) | > 100 µM (inactive) | > 100 µM (inactive) | > 100 µM (inactive) | > 100 µM | > 100 µM (inactive) | > 100 µM (inactive) | > 100 µM (inactive) | 56.1 µM (inactive) | > 100 µM (inactive) | > 100 µM (inactive) | > 100 µM (inactive)
COc1ccc(/C=C/c2sc3ccccc3[n+]2CCCCI)cc1OC | – | > 10 µM (inactive) | > 10 µM (inactive) | 3.61 µM (inactive) | > 10 µM (inactive) | 5.87 µM (inactive) | > 10 µM (inactive) | > 10 µM (inactive) | 7.33 µM (inactive) | > 10 µM (inactive) | > 10 µM (inactive) | > 10 µM (inactive) | > 10 µM | > 10 µM (inactive) | > 10 µM (inactive) | 4.36 µM (inactive) | > 10 µM (inactive) | 3.33 µM (inactive) | 5.47 µM (inactive) | > 10 µM (inactive)
O=C(O)c1ccccc1C(=O)NCC1S(=O)(=O)OCCOS1(=O)=O | – | > 100 µM (inactive) | > 100 µM (inactive) | > 100 µM (inactive) | > 100 µM (inactive) | > 100 µM (inactive) | > 100 µM (inactive) | > 100 µM (inactive) | > 100 µM (inactive) | > 100 µM (inactive) | > 100 µM (inactive) | > 100 µM (inactive) | > 100 µM | > 100 µM (inactive) | > 100 µM (inactive) | > 100 µM (inactive) | > 100 µM (inactive) | > 100 µM (inactive) | > 100 µM (inactive) | > 100 µM (inactive)
Oc1ccc2ccccc2c1CN(Cc1c(O)ccc2ccccc12)C1CCCCC1 | – | 19.4 µM (inactive) | 22.8 µM (inactive) | 23.3 µM (inactive) | 21.6 µM (inactive) | 16.6 µM (inactive) | 15.6 µM (inactive) | 17.1 µM (inactive) | 25.1 µM (inactive) | 18.7 µM (inactive) | 15.4 µM (inactive) | 17.1 µM (inactive) | 20.6 µM | 29.7 µM (inactive) | 28.2 µM (inactive) | 15.8 µM (inactive) | 16 µM (inactive) | 17 µM (inactive) | 19.1 µM (inactive) | 27 µM (inactive)
